Test results reported in US20120184536A1, “COMPOSITIONS COMPRISING SPECIFIC UGT INHIBITORS AND METHODS OF USE THEREOF” (The Board of Trustees of the University of Arkansas, priority 2009, published 2012).
Read-outs that look alike come from different tables or passages of the source.

What was measured:
UGT1A10 [1] = molecular target: T1, UGT1A10 (Homo sapiens, UniProt Q9HAW8); assay: Ki assays / kinetics and inhibition type, UGT1A10 (Example 2); settings: UGT1A10, Example 2; for Inhibition Type (UDP-GlcUA): UDP-GlcUA varied
T1 sequence (Q9HAW8 26-530): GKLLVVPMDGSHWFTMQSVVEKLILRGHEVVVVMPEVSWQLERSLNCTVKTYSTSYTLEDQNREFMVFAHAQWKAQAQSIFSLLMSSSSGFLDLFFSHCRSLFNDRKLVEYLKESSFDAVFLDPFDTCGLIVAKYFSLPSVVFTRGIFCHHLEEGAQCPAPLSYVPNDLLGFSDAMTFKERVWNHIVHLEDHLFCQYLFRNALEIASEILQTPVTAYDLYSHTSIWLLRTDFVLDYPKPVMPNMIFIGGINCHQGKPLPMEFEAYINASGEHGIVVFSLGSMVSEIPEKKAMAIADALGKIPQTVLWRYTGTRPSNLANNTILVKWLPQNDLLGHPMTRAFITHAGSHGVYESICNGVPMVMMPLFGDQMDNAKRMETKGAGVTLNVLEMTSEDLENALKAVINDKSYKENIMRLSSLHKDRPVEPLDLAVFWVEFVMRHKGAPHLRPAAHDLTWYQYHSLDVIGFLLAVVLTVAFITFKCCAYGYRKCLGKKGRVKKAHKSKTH
Experimental: Recombinant UGT Isoform Incubations—Recombinant human UGT1A10 and it mutants were produced in baculovirus-infected insect cells as previously described (6, 7). Synthesis of inhibitors was described previously (2). For inhibition assays, UGT recombinant membrane protein (5 μg) was incubated in reaction buffer ([…] Tris-HCl (pH 7.4)/5 mM MgCl2/5 mM saccharolactone) and 2% DMSO with substrate, inhibitor and co-substrate, UDP-GlcUA, in a total volume of 30 μl. Substrates were added in DMSO, and controls were run with each assay. No additional detergents or other activators were used in the incubations. Reactions were started by the addition of co-substrate and incubated at 37° C. (90 min for 8-hydroxywarfarin; 30 min for 4-MU; 30 min for E2). […] Reactions were stopped by addition of 40 μl of ethanol, and all incubations were performed in duplicate.
TLC Analysis—For inhibition assays using 4-MU, E2, and 8-OH warfarin as substrates, aliquots (60 μl) of each sample were analyzed using thin layer chromatography (TLC) as described previously (3).
Each sample was centrifuged at 14,000 rpm for 8 min to spin down the protein, and 60 μl of the supernatant was analyzed by HPLC as described previously (8).

UGT2B7 [2] = molecular target: T2, UGT2B7 (Homo sapiens, UniProt P16662); assay: Ki assays / kinetics and inhibition type, UGT2B7 (Example 1); settings: UGT2B7
T2 sequence (P16662 24-529): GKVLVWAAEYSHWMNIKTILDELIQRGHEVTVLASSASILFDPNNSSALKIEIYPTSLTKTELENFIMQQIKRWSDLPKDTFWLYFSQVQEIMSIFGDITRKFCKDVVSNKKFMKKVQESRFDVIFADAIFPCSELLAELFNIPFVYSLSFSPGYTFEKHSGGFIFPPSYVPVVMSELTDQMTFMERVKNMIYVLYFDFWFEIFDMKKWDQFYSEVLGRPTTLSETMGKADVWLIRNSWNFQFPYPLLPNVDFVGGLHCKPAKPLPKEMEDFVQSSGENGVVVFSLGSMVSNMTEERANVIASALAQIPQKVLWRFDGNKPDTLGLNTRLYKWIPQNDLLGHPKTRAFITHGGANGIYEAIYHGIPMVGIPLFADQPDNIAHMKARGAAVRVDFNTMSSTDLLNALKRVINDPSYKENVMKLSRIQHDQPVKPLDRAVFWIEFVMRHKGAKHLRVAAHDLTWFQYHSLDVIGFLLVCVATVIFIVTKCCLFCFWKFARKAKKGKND
Experimental: (§1) Recombinant UGT Isoform Incubations—Recombinant human UGT2B7 was produced in HEK239 cells as previously described (6). UGT1A10 was produced as a His-tagged protein in baculovirus-infected Sf9 insect cells as previously described (7, 8). […] For inhibition assays, recombinant UGT membrane protein was incubated in reaction buffer with substrate, inhibitor, and co-substrate as previously described (6, 9).
(§2) Ki assays—UGT2B7 or 1A10 were incubated with a range of at least four different concentrations of inhibitor using varying concentrations of substrate (Ki(substrate)) with a fixed saturating concentration of cosubstrate or with varying concentrations of co-substrate (Ki(UDP-GlcUA)) and a fixed saturating concentration of substrate (FIG. 4).
(§3) The results of these experiments were analyzed and apparent kinetic and inhibition parameters were determined using Prism 4 software (GraphPad, San Diego, Calif.) and DynaFit (BioKin, Watertown, Mass.). TLC and HPLC Analysis—For inhibition assays using all substrates other than 7-OH-warfarin, aliquots (60 μl) of each incubation were analyzed using thin layer chromatography (TLC) as previously described (3). For inhibition assays using 7-OH-warfarin as a substrate, samples were analyzed using HPLC as described previously (10). Primary standards for the 7-OH-warfarin glucuronide were not available; therefore, product concentrations were estimated using the external standard response for the 7-OH-warfarin substrate.

UGT2B7 [3] = molecular target: T2, UGT2B7; assay: IC50 assays, inhibition of UGT2B7 glucuronidation (Example 1)
Experimental: Recombinant UGT Isoform Incubations—Recombinant human UGT2B7 was produced in HEK239 cells as previously described (6). […] For inhibition assays, recombinant UGT membrane protein was incubated in reaction buffer with substrate, inhibitor, and co-substrate as previously described (6, 9).
IC50 assays—UGT2B7 or 1A10 were incubated with fixed concentrations of each substrate and co-substrate and increasing concentrations of inhibitor.
as §3

UGT1A10 [4] = molecular target: T1, UGT1A10; assay: Ki assays / kinetics and inhibition type, UGT1A10 (Example 1); settings: for Inhibition Type (UDP-GlcUA): UDP-GlcUA varied
Experimental: as §1, §2, §3

UGT1A10 [5] = molecular target: T1, UGT1A10; assay: IC50 assays, inhibition of UGT1A10 glucuronidation (Example 1); assay type: biochemical; design: His; made in house; host or cells: baculovirus-infected Sf9 insect cells
Source text: Synthesis of inhibitors was described previously (2).

UGT1A10 [6] = molecular target: T1, UGT1A10; assay type: biochemical; design: His; made in house; host or cells: baculovirus-infected Sf9 insect cells

## CCCCCCCCCC(=O)NC(COC(=O)NS(=O)(=O)OCC1OC(n2ccc(=O)[nH]c2=O)C(O)C1O)Cc1ccccc1 (stereo not drawn) [PP55B]
UGT1A10 [1]; 4-MU varied
  Inhibition Type (Substrate): Competitive
UGT1A10 [1]; 7-OH warfarin varied
  Inhibition Type (Substrate): Competitive
UGT1A10 [1]; 8-OH warfarin varied
  Inhibition Type (Substrate): Competitive
UGT1A10 [1]; 4-MU
  Inhibition Type (UDP-GlcUA): Competitive
UGT1A10 [1]; 7-OH warfarin 3 mM
  Inhibition Type (UDP-GlcUA): Mixed
UGT1A10 [1]; 8-OH warfarin
  Inhibition Type (UDP-GlcUA): Competitive
UGT1A10 [1]; E2 1 mM
  Inhibition Type (UDP-GlcUA): Mixed
UGT2B7 [2]; UDP-GlcUA varied, androsterone
  Inhibition Type (UDP-GlcUA): Mixed
UGT2B7 [2]; UDP-GlcUA varied, linoleic acid
  Inhibition Type (UDP-GlcUA): Competitive
UGT2B7 [2]; UDP-GlcUA varied, p-nitrophenol
  Inhibition Type (UDP-GlcUA): Mixed
UGT2B7 [2]; androsterone varied
  Inhibition Type (Substrate): Mixed
UGT2B7 [2]; linoleic acid varied
  Inhibition Type (Substrate): Competitive
UGT2B7 [2]; p-nitrophenol varied
  Inhibition Type (Substrate): Competitive
UGT2B7 [2]; read-out: Kiapp (Substrate), linoleic acid varied
  Ki: 4.2 µM
UGT2B7 [2]; read-out: Kiapp (Substrate), p-nitrophenol varied
  Ki: 7.6 µM
UGT2B7 [2]; read-out: Kiapp (UDP-GlcUA), UDP-GlcUA varied, linoleic acid
  Ki: 2.5 µM
UGT2B7 [2]; read-out: Kiapp (UDP-GlcUA), UDP-GlcUA varied, p-nitrophenol
  Ki: 2.1 µM
UGT2B7 [2]; read-out: Ki′app (UDP-GlcUA), UDP-GlcUA varied, p-nitrophenol
  Ki: 85 µM
UGT2B7 [3]; read-out: IC50 (Substrate), linoleic acid ~2 x Km, co-substrate in >5 fold excess
  IC50: 14 µM
UGT2B7 [3]; read-out: IC50 (Substrate), p-nitrophenol (pNP) ~2 x Km, co-substrate in >5 fold excess
  IC50: 75 ± 10 µM
UGT1A10 [4]; 4-MU varied
  Inhibition Type (Substrate): noncompetitive and Non-
UGT1A10 [4]; 7-OH warfarin varied
  Inhibition Type (Substrate): Competitive
UGT1A10 [4]; 8-OH warfarin varied
  Inhibition Type (Substrate): Mixed
UGT1A10 [4]; E2 varied
  Inhibition Type (Substrate): Mixed
UGT1A10 [4]; 4-MU
  Inhibition Type (UDP-GlcUA): Competitive
UGT1A10 [4]; 7-OH warfarin
  Inhibition Type (UDP-GlcUA): Competitive
UGT1A10 [4]; 8-OH warfarin
  Inhibition Type (UDP-GlcUA): Competitive
UGT1A10 [4]; E2
  Inhibition Type (UDP-GlcUA): Mixed
UGT1A10 [4]; read-out: Kiapp (Substrate), 4-MU varied
  Ki: 96 µM
UGT1A10 [4]; read-out: Kiapp (Substrate), 7-OH warfarin varied
  Ki: 8.5 µM
UGT1A10 [4]; read-out: Kiapp (Substrate), 8-OH warfarin varied
  Ki: 27 µM
UGT1A10 [4]; read-out: Kiapp (Substrate), E2 varied
  Ki: 200 µM
UGT1A10 [4]; read-out: Kiapp (UDP-GlcUA), UDP-GlcUA varied, 4-MU
  Ki: 5.7 µM
UGT1A10 [4]; read-out: Kiapp (UDP-GlcUA), UDP-GlcUA varied, 7-OH warfarin
  Ki: 4.1 µM
UGT1A10 [4]; read-out: Kiapp (UDP-GlcUA), UDP-GlcUA varied, 8-OH warfarin
  Ki: 26 µM
UGT1A10 [4]; read-out: Kiapp (UDP-GlcUA), UDP-GlcUA varied, E2
  Ki: 6.9 µM
UGT1A10 [4]; read-out: Ki′app (Substrate), 8-OH warfarin varied
  Ki: 136 µM
UGT1A10 [4]; read-out: Ki′app (Substrate), E2 varied
  Ki: 43 µM
UGT1A10 [4]; read-out: Ki′app (UDP-GlcUA), UDP-GlcUA varied, E2
  Ki: 23 µM
UGT1A10 [5]; 4-MU, read-out: IC50 (Substrate)
  IC50: 8 ± 1 µM
UGT1A10 [5]; 7-OH warfarin, read-out: IC50 (Substrate)
  IC50: 11 ± 2 µM
UGT1A10 [5]; 8-OH warfarin, read-out: IC50 (Substrate)
  IC50: 35 ± 4 µM
UGT1A10 [5]; E2, estimation, some activation at low concentrations, read-out: IC50 (Substrate)
  IC50: ~200 µM
UGT1A10 [5]; co-substrate ~2 x Km, 4-MU in excess, read-out: IC50 (UDP-GlcUA)
  IC50: 15 ± 2 µM
UGT1A10 [5]; co-substrate ~2 x Km, 7-OH warfarin in excess, read-out: IC50 (UDP-GlcUA)
  IC50: 4.9 ± 0.2 µM
UGT1A10 [5]; co-substrate ~2 x Km, 8-OH warfarin in excess, read-out: IC50 (UDP-GlcUA)
  IC50: 14 ± 1 µM
UGT1A10 [5]; co-substrate ~2 x Km, E2 in excess, read-out: IC50 (UDP-GlcUA)
  IC50: 39 ± 11 µM
UGT1A10 [6]
  extent of inhibition of UGT1A10 activity toward 7-OH warfarin: did not fully inhibition
